# PubChem BioAssay (NCI)
#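 Tested at 5 concentrations; 48 h exposure; 96-well plates; endpoints linearly interpolated, else capped at highest concentration. GI50: concentration for 50% inhibition of growth. TGI: total growth inhibition.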
# Experiments:
# Assay in all cases: NCI tumour cell line growth inhibition, 48 h
# 786-0 renal = test system: 786-0 renal
# HS 578T breast = test system: HS 578T breast
# K-562 leukemia = test system: K-562 leukemia
# MALME-3M melanoma = test system: MALME-3M melanoma
# NCI-H226 lung = test system: NCI-H226 lung
# NCI-H522 lung = test system: NCI-H522 lung
# OVCAR-8 ovarian = test system: OVCAR-8 ovarian
# RPMI-8226 leukemia = test system: RPMI-8226 leukemia
# SW-620 colon = test system: SW-620 colon
# UACC-257 melanoma = test system: UACC-257 melanoma
Structure (SMILES),GI50 (786-0 renal) [µM],TGI (786-0 renal) [µM],GI50 (HS 578T breast) [µM],TGI (HS 578T breast) [µM],GI50 (K-562 leukemia) [µM],TGI (K-562 leukemia) [µM],GI50 (MALME-3M melanoma) [µM],TGI (MALME-3M melanoma) [µM],GI50 (NCI-H226 lung) [µM],TGI (NCI-H226 lung) [µM],GI50 (NCI-H522 lung) [µM],TGI (NCI-H522 lung) [µM],GI50 (OVCAR-8 ovarian) [µM],TGI (OVCAR-8 ovarian) [µM],GI50 (RPMI-8226 leukemia) [µM],TGI (RPMI-8226 leukemia) [µM],GI50 (SW-620 colon) [µM],TGI (SW-620 colon) [µM],GI50 (UACC-257 melanoma) [µM],TGI (UACC-257 melanoma) [µM]
O=S(=O)(NC1=NCCN1C(=S)SN1CCn2c1nsc2=S)c1ccccc1Cl,16.7,39.1,29.6,> 100,4.62,46.3,12.5,67.5,35.7,> 100,6.08,21.9,28.6,> 100,3.5,26.2,10.4,77.9,31.6,> 100
NS(=O)(=O)c1ccc(-n2ncc3c(Nc4ccccc4)ncnc32)cc1,18.3,55.7,33.8,> 100,4.44,37.7,33,> 100,46.4,> 100,51.1,> 100,18.3,65,15.3,76.6,30.3,> 100,39.4,> 100
O=C(CNc1ccc2c(=S)c3ccccc3[nH]c2c1)Nc1ccccc1-c1ccccc1NC(=O)CNc1ccc2c(=S)c3ccccc3[nH]c2c1,–,32.9,–,> 77.7,–,> 53.6,–,31.7,–,54.6,–,24.1,–,55.7,–,49.9,–,39.5,–,45.3
COc1c(Cl)ccc2c(-c3nc4cc(Cl)c(F)cc4s3)cc(=O)oc12,2.64,5.65,26.8,> 100,5.42,> 100,2.11,4.73,11.7,> 69.3,1.6,3.38,11.2,> 100,3.58,> 38.2,10.3,> 100,26.5,> 73.6
COc1cccc(CCC(=O)c2cc3c(N)c(C(=O)Nc4cccc(Cl)c4C)sc3nc2C)c1,0.53,> 100,0.343,–,0.396,> 100,0.469,> 100,1.45,32.7,0.368,–,1.44,> 100,0.819,> 100,0.469,> 100,4.25,> 100
NC(=O)c1ccccc1NC(=O)c1ccccc1Cl,> 100,> 100,> 100,> 100,> 100,> 100,> 100,> 100,> 100,> 100,> 100,> 100,> 100,> 100,> 100,> 100,> 100,> 100,> 100,> 100
